The test system of data set [1] is mouse sarcoma CCRF-S180 II (CCL-8). Description: Mouse non-metastatic cancer model, sarcoma CCL-8 s.c. in ICR mice. To be noted: s.c. Day 1, 2, 3, 4, 7, 8, 9, 10, 11; dose 5 mg/kg, total dose 45 mg/kg. Format: in vivo. How it is done: Six-week-old female ICR and BALB/c mice were purchased from the University of Tartu Laboratory Animal Centre (Estonia). The mice were housed five to a cage, and under standard conditions (21-23° C., 12 h light: dark cycle), fed ad libitum (R3 diet, Lactamin AB, Kimstad, Sweden) and observed daily. The experimental procedures involving experimental animals were carried out in accordance with the guidelines of the European Community, local laws and policies, and were approved by the Latvian Animal Protection Ethical Committee, the Food and Veterinary Service, Riga, Latvia.
In vivo studies were performed utilizing the mouse sarcoma CCRF-S180 II (CCL-8) and Lewis lung carcinoma (LLC) cell line. All cell lines were purchased from ATCC. The cells were grown in Dulbecco's modified Eagle's medium (Sigma) supplemented with 10% fetal calf serum (Sigma).
ICR mice were subcutaneously inoculated in the back with 5×10^6 CCL-8 cells and BALB/c mice were inoculated with 1×10^6 LLC (Lewis Lung Carcinoma) cells, which were suspended in 0.1 mL of PBS on day zero of the study. The compounds dissolved in DMSO and then in 0.1 mL water (DMSO final concentration 1%) were injected s.c. Mice in the untreated group were similarly given doses of 0.1 mL of water with DMSO. Tumor volume (tumor volume V=[…], a is maximal and b the minimal tumor diameter) was recorded twice per week. The mice were examined every other day for diseases including appearance, weight and behavior. The mice were sacrificed at day 16 of the experiment by decapitation after ketamine/xylazine anesthesia.

In data set [2] the test system is 3T3 (mouse embryo fibroblasts). Put plainly: Basal cytotoxicity test, Neutral Red Uptake (NRU) assay. Format: cell-based. Here is the method:
(§1) In parallel, the borderline concentration relevant to the highest tolerated dose has been determined for each compound using the NIH 3T3 (mouse embryo fibroblasts) cell line and the basal cytotoxicity obtained has then been used to predict the starting doses for in vivo acute oral LD50 values in rodents.
(§2) the Neutral Red Uptake (NRU) assay was performed according to the standard protocol of Stokes modified by the NICEATM-ECVAM validation study. The NRU cytotoxicity assay procedure is based on the ability of viable cells to incorporate and bind Neutral Red, a supravitally dye. Balb/c 3T3 (Mouse Swiss Albino embryo fibroblast) cells (9000 cells/well) were placed into 96-well plates for 24 h in Dulbecco's modified Eagle's (DMEM) medium containing 5% fetal bovine serum. The cells were then exposed to the test compounds over a range of […] concentrations (1000, 316, 100, 31, 10, 3, 1 μg/ml) for 24 h. Untreated cells were used as a control. After 24 h, the medium was removed from all plates. Then, 250 μL of Neutral Red solution were added (0.05 mg/mL NR in DMEM 24 h pre-incubated at 37° C. and then filtered before use through 0.22-μm syringe filter). Plates were incubated for 3 h and then cells were washed three times with PBS. The dye within viable cells was released by extraction with a mixture of acetic acid, ethanol and water (1:50:49). Absorbance of Neutral Red was measured using a spectrophotometer multiplate reader (TECAN, Infinite M1000) at 540 nm. The percentage of living cells was calculated using the formula: OD (treated cells)*100/OD (control cells). The IC50 values were calculated using the programme Graph Pad Prism® 3.0.
(§3) Data from the in vitro tests were used for estimating the starting dose for acute oral systemic toxicity tests in rodents. […] The value is recalculated to mg/kg and compounds are evaluated in accordance with four toxicity categories: category 1: LD50≤5 mg/kg (highly toxic); category 2: 5<LD50≤50 mg/kg (moderately toxic); category 3: 50<LD50≤300 mg/kg (slightly toxic); category 4: 300<LD50≤2 000 mg/kg (practically non-toxic).

Assay in data set [3]: as above
Format: cell-based. The note with it: for LD50 at 24 h: mouse, po, acute oral LD50 calculated from 3T3 NRU IC50 by regression formula, read-out: Basal cytotoxicity Estimated* LD50; for IC50 at 24 h: normal mouse embryo fibroblasts, read-out: Cytotoxicity IC50, 3T3. Here is the method: as §1, §2, §3

The next data set deals with malignant tumor cells. Description: In vitro cytotoxicity on monolayer tumor cell lines (panel, summary in words). The format is cell-based. The note with it: summary of Table 1. Here is the method: Anticancer activity of selenopheno[h]chromenes was tested in vitro using cytotoxicity assay. Thus, monolayer tumor cell lines MDA-MB-435s (human melanoma), MCF-7 (human breast adenocarcinoma, estrogen-positive), MES-SA (human uterus sarcoma), HT-1080 (human fibrosarcoma), A549 (human lung carcinoma), SH-SY5Y (human neuroblastoma), CCL-8 (mouse sarcoma), MG-22A (mouse hepatoma), and HepG2 (human hepatocellular carcinoma) were cultured in standard medium DMEM (Dulbecco's modified Eagle's medium) (“Sigma”) supplemented with 10% fetal bovine serum (“Sigma”). About 2-9·10^4 cells/mL (depending on line nature) were placed in 96-well plates immediately after compounds were added to the wells. Untreated cells were used as a control. The plates were incubated for 72 h, 37° C., 5% CO2. The number of surviving cells was determined using 3-(4,5-dimethylthiazol-2-yl)-2,5-diphenyltetrazolinium bromide (MTT). MTT-test: after incubating culture medium was removed and 200 μL fresh medium with 10 mM HEPES was added in each well of the plate, than 20 μL MTT (2 mg/mL in HBSS) was added. After incubation (3 hr, 37° C., 5% CO2), the medium with MTT was removed and 200 μL DMSO were added at once to each sample. The samples were tested at 540 nm on Anthos HT II photometer.

For data set [4], the system named is HepG2 (human hepatocellular carcinoma). Description: In vitro cytotoxicity, MTT test. The format is cell-based. To be noted: read-out: Cytotoxicity IC50, HepG2. How it is done: (§4) Anticancer activity of selenopheno[h]chromenes was tested in vitro using cytotoxicity assay. […] About 2-9·10^4 cells/mL (depending on line nature) were placed in 96-well plates immediately after compounds were added to the wells. Untreated cells were used as a control. The plates were incubated for 72 h, 37° C., 5% CO2. The number of surviving cells was determined using 3-(4,5-dimethylthiazol-2-yl)-2,5-diphenyltetrazolinium bromide (MTT). MTT-test: after incubating culture medium was removed and 200 μL fresh medium with 10 mM HEPES was added in each well of the plate, than 20 μL MTT (2 mg/mL in HBSS) was added. After incubation (3 hr, 37° C., 5% CO2), the medium with MTT was removed and 200 μL DMSO were added at once to each sample. The samples were tested at 540 nm on Anthos HT II photometer.
(In general: Tetrazolium assays rely on reduction of a dye to a coloured formazan, in cell work by metabolically active cells.)

The test system of data set [5] is MES-SA (human uterus sarcoma). Description: In vitro cytotoxicity, MTT test. The format is cell-based. The note with it: 72 h, read-out: Cytotoxicity IC50, MES-SA. Here is the method:
as §4

Data set [6] deals with HT-1080 (human fibrosarcoma). Put plainly: In vitro cytotoxicity, MTT test. Format: cell-based. To be noted: read-out: Cytotoxicity IC50, HT-1080. Here is the method:
as §4

In data set [7] the test system is MDA-MB-435s (human melanoma). Put plainly: In vitro cytotoxicity, MTT test. The format is cell-based. The note with it: 72 h, read-out: Cytotoxicity IC50, MDA-MB-435s. Here is the method: as §4
Data set [8] deals with SH-SY5Y (human neuroblastoma). Description: In vitro cytotoxicity, MTT test. The format is cell-based. To be noted: Homo sapiens, SH-SY5Y, 72 h, read-out: Cytotoxicity IC50, SHSY5Y. How it is done:
as §4

The subject of data set [9] is MCF-7 (human breast adenocarcinoma, estrogen-positive). Put plainly: In vitro cytotoxicity, MTT test. The format is cell-based. To be noted: read-out: Cytotoxicity IC50, MCF-7. Here is the method:
as §4

Another data set relates to CCL-8 (mouse sarcoma). Put plainly: In vitro cytotoxicity, MTT test. Format: cell-based. To be noted: 72 h, read-out: Cytotoxicity IC50, CCL-8. How it is done: as §4
In data set [10] the test system is A549 (human lung carcinoma). Description: In vitro cytotoxicity, MTT test. Format: cell-based. The note with it: Homo sapiens, A549, 72 h, read-out: Cytotoxicity IC50, A549. How it is done: as §4
Another data set concerns MG-22A (mouse hepatoma). Put plainly: In vitro cytotoxicity, MTT test. The note with it: 72 h, read-out: Cytotoxicity IC50, MG-22A. Format: cell-based. How it is done: as §4
The next data set relates to 4T1 carcinoma cells. Description: 4T1 model of lung metastasis (tail vein) in Balb/c mice. Format: in vivo, mouse. To be noted: for Spleen weight increase: 4T1 i.v., control with tumor +147%; for % of the total area occupied by metastases, % (control = 100) / % of the total area occupied by metastases, Mean ± SD: s.c., days 1, 4, 7, 9, 11, 14. Here is the method:
Compounds were administered s.c. at 1, 4, 7, 9, 11 and 14th days. 4T1 cells (10,000/0.1 ml PBS) were injected i.v. into syngeneic mice. The metastasis at day 16 are shown for each mouse, and averages are provided for illustration.
Balb/c mice were injected with 100,000 4T1 […] cancer cells into the tail vein and treatment started 24 hr later with subcutaneous (s.c.), intraperitoneal (i.p.) injections or oral administration (p.o.) of compounds according to the following scheme: 1, 4, 7, 9, 11 and 14th days in dose 20 or 40 mg/kg. Compounds were dissolved in DMSO and the solution were diluted by water (DMSO final concentration <1%). Mice in the control group were similarly given doses of 0.1 mL of water with DMSO. Twenty-one days later, all mice were anesthetized with ketamine/xylazine and euthanized, the mice were sacrificed spleens were excised from the mice and weighed. In each experiment, mice were weighed twice weekly.
(Lewis et al, Cancer Res, 2005, 65) Pulmonary metastases were enumerated by intra-tracheal injection of India ink (15% India Ink, 85% water, 3 drops NH4OH/100 ml). India ink injected lungs were washed in Feket's solution (300 ml 70% EtOH, 30 ml 37% formaldehyde, 5 ml glacial acetic acid) and then placed fresh Feket's solution overnight. […] White tumor nodules against a black lung background were measured.

Results on two compounds are retold here after patent US10561681B2, “Antimetastatic 2H-selenopheno[3,2-h]chromenes, synthesis thereof, and methods of using same agents” (Latvian Institute of Organic Synthesis, priority 2016, dated 2020).

Values joined by “and” are separate entries in the source; they are usually repeats but may differ in a detail not shown here. Equal values may be shown once. Read-outs that look alike come from different tables or passages of the source. Marks after values point to notes of the source that are not given here. Bounds are passed on as bounds.

Usually LD50 stands for the dose expected to kill half of the subjects tested. The IC50 is the concentration that gives 50% inhibition. `COC(=O)c1cc2ccc3c(Br)c(CN4CCOCC4)[se]c3c2oc1=O` [Compound I-9, Methyl 7-bromo-8-(morpholinomethyl)-2-oxo-2H-selenopheno[3,2-h]chromene-3-carboxylate]: the “Anticancer activity in vivo (inhibition, %), CCL-8 tumor volume” value in data set [1] was 38** %. Moreover, the “Toxicity against normal NIH 3T3 cells” value in data set [2] is reported as “the most toxic among studied chromenes”. Moreover, the LD50 at 24 h in [3] was 2400 µmol/kg and 1250 mg/kg. Besides, the IC50 at 24 h in data set [3] came out at 56 ± 3 µM. For the same compound, the “Cytotoxicity on cancer cell lines” value with malignant tumor cells is recorded as “medium cytotoxicity”. Moreover, the half-inhibitory concentration (IC50) in data set [4] (HepG2, MTT, 72 h) was determined as 90 ± 6 µM; in [5] (MTT), 54 ± 7 µM; in data set [6] (HT-1080, MTT, 72 h) it was 86 ± 6 µM; in [7] (MTT), 67 ± 8 µM; in data set [8] (MTT), 46 ± 9 µM; in data set [9] (MCF7, MTT, 72 h), 81 ± 6 µM. The IC50 in the data set with CCL-8 (mouse sarcoma) (MTT) amounted to 84 ± 6 µM; in [10] (MTT, 72 h) it was 86 ± 6 µM; in the data set with MG-22A (mouse hepatoma) (MTT) it was 48 ± 3 µM.

Take `CN1CCN(Cc2[se]c3c(ccc4cc(C(=O)O)c(=O)oc43)c2Br)CC1.Cl` [Compound I-15, 7-Bromo-8-/(4-methylpiperazin-1-yl/methyl)-2-oxo-2H-selenopheno[3,2-h]chromene-3-carboxylic acid hydrochloride]: in data set [3], the median lethal dose (LD50) at 24 h was 3200 µmol/kg and 1670 mg/kg. Besides, in data set [3], the 50% inhibitory concentration (IC50) at 24 h amounted to 192 ± 7 µM. Moreover, in the data set on malignant tumor cells, the “Cytotoxicity on cancer cell lines” value is “low toxic to the cancer cell lines”. Also, the values for the Spleen weight increase in the data set on 4T1 carcinoma cells (dose 20 mg/kg) and in the data set with 4T1 carcinoma cells (dose 40 mg/kg) were 55% and 14%, respectively. Also, the “Prevention of formation of 4T1 carcinoma lung metastasis” value in the data set with 4T1 carcinoma cells (five mice per group) was 98%. In addition, the “% of the total area occupied by metastases, % (control = 100)” value with 4T1 carcinoma cells (20 mg/kg) is listed as 4* %; with 4T1 carcinoma cells (40 mg/kg), 1* %. For the same compound, the “% of the total area occupied by metastases, Mean ± SD” value is recorded as 2 ± 2% in the data set with 4T1 carcinoma cells (20 mg/kg, control 50 ± 33) and 0 ± 1% with 4T1 carcinoma cells (40 mg/kg). Moreover, the half-maximal inhibitory concentration (IC50) in data set [4] (HepG2, 72 h) was over 192 µM; in [5], over 117 µM; in data set [6] (HT-1080, 72 h) it was over 192 µM; in data set [7] it was over 122 µM; in [8], over 192 µM; in data set [9] (MCF7, 72 h) it was over 192 µM. The results for the half-inhibitory concentration (IC50) (with CCL-8 (mouse sarcoma); in data set [10]; with MG-22A (mouse hepatoma)) were over 122 µM, over 192 µM and 186 ± 7 µM, respectively.
